Measured values from patent US6380207B2, “Glucocortiocoid-selective antiinflammatory agents” (Abbott Laboratories, priority 1998, dated 2002).

How the values were obtained:
[1] = target: T1, human glucocorticoid receptor-α [GRX] isoform (Homo sapiens, UniProt P04150); experiment: Radioligand binding with human glucocorticoid receptor cytosol ([3H]-dexamethasone); details: [3H]-Dex competition, 4° C. overnight, Cheng-Prusoff, read-out: Ki (nM) GR
T1 construct: purchased Ligand Pharmaceuticals (San Diego, Calif.); host or cells: insect SF21 cells (baculovirus)
T1 sequence (P04150 1-777): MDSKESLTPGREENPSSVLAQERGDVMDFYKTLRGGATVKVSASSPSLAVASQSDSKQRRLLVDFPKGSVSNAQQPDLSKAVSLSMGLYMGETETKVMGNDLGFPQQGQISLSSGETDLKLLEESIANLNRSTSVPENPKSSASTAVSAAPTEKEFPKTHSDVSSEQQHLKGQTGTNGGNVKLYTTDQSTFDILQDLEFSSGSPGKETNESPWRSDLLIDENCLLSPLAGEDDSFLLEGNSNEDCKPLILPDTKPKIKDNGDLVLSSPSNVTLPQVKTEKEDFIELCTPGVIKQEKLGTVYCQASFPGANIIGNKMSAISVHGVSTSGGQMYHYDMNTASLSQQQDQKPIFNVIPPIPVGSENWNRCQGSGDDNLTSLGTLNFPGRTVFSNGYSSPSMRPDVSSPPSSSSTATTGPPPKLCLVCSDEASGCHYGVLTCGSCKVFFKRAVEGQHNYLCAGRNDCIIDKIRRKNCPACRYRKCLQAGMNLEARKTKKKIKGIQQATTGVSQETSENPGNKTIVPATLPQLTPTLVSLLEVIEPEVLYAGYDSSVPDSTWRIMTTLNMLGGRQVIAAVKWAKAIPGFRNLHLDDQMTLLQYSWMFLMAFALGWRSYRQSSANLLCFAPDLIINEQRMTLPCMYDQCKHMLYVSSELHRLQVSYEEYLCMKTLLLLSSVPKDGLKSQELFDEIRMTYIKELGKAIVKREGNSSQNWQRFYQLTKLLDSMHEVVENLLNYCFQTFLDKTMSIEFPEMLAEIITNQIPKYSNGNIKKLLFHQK
From the text: (§1) The procedure described in Anal. Biochem. 1970, 37, 244-252, hereby incorporated by reference, was used. Briefly, cytosol preparations of human glucocorticoid receptor-α [GRX] isoform and human progesterone receptor-A [PRA] isoform were obtained from Ligand Pharmaceuticals (San Diego, Calif.). Both receptor cDNAs were cloned into baculovirus expression vectors and expressed in insect SF21 cells. [^3H]-dexamethasone (Dex, specific activity 82-86 Ci/mmole) and [^3H]-progesterone (Prog, specific activity 97-102 Ci/mmol) were purchased from Amersham Life Sciences (Arlington Heights, Ill.). Glass fiber type C multiscreen MAFC NOB plates were from Millipore (Burlington, Mass.). Hydroxyapatide Bio-Gel HTP gel was from Bio-Rad Laboratories (Hercules, Calif.). Tris(hydroxymethyl)aminomethane (Tris), ethylenediaminetetraacetic acid (EDTA), glycerol, dithiothreitol (DTT) and sodium moylybdate were obtained from Sigma Chemicals (St. Louis, Mo.). Microscint-20 scintillation fluid was from Packard Instrument (Meriden, Conn.).
(§2) Stock solutions (32 mM) of compounds were prepared in dimethylsulfoxide (DMSO), and 50× solutions of test compounds were prepared from the 32 mM solution with a 50:50 mixture of DMSO/ethanol. The 50× solution was then diluted with binding buffer that contained 10 mM Tri-HCl, 1.5 mM EDTA, 10% glycerol, 1 mM DTT, 20 mM sodium molybdate, pH 7.5 @ 4° C. 1% DMSO/ethanol was present in the binding assay.
GRX and PRA binding reactions were performed in Millipore Multiscreen plates. For GR binding assays, [^3H]-Dex (˜35,000 dpm (˜0.9 nM)), GRX cytosol (˜35 μg protein), test compounds and binding buffer were mixed in a total volume of 200 μL and incubated at 4° C. overnight in a plate shaker. Specific binding was defined as the difference between binding of [^3H]Dex in the absence and in the presence of 1 μM unlabelled Dex.
(§3) After an overnight incubation, 50 μL of hydroxyapatite (25% weight/volume) slurry were added to each well and plates were incubated for 10 min at […] in a plate shaker. Plates were suctioned with a Millipore vacuum manifold and each well was rinsed with 300 μL of ice-cold binding buffer. A 250 μL aliquot of Packard Microscint-20 was added to each well and the wells were shaken at room temperature for 20 minutes. The amount of radioactivity was determined with a Packard TopCount plate reader.
(§4) The concentration of test compounds that inhibited 50% of specific binding (IC50) was determined from a Hill analysis of the competitive binding experiments. The Ki of test compounds was determined using the Cheng-Prusoff equation Ki=IC50/(1+[L*]/[KL]) where L* is the concentration of radioligand and KL is the dissociation constant of the radioligand determined from saturation analysis. For GRX, KL was ˜1.5 nM, and for PRA, KL was ˜4.5 nM.

[2] = target: T2, human progesterone receptor-A [PRA] isoform (Homo sapiens, UniProt P06401); experiment: Radioligand binding with human progesterone receptor cytosol ([3H]-progesterone); details: [3H]Prog competition, 4° C. overnight, Cheng-Prusoff, read-out: Ki (nM) PR
T2 construct: purchased Ligand Pharmaceuticals (San Diego, Calif.); host or cells: insect SF21 cells (baculovirus)
T2 sequence (P06401 1-769 isoform P06401-2): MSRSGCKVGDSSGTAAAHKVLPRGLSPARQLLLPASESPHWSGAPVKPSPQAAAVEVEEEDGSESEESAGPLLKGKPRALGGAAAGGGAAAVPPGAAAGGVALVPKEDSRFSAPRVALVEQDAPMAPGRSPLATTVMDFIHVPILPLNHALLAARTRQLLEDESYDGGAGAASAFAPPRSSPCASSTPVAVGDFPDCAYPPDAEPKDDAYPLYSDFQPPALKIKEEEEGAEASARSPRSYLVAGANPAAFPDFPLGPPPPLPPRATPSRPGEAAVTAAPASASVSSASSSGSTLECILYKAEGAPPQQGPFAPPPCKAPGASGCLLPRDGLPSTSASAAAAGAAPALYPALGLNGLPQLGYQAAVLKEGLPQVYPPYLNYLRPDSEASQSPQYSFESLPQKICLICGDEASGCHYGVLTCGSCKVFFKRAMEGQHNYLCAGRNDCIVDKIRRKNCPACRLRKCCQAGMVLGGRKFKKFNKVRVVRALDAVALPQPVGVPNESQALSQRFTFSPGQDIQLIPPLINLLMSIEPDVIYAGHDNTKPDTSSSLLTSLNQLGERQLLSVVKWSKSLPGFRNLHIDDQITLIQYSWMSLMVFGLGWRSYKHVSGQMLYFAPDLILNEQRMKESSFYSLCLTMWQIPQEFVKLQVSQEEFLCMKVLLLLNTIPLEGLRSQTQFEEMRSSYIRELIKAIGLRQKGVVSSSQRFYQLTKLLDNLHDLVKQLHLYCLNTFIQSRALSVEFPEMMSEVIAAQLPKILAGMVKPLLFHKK
From the text: as §1, §2
For PR binding assays, [^3H]Prog (˜36,000 dpm (˜0.8 nM)), PRA cytosol (˜40 μg protein), test compounds and binding buffer were mixed in a total volume of 200 μL and incubated at 4° C. at overnight in a plate shaker. Specific binding was defined as the difference between binding of [^3H]Prog in the absence and in the presence of 3 μM unlabelled Prog.
as §3, §4

COc1cc2c(c3c1-c1ccccc1OC3c1ccccc1)C(C)=CC(C)(C)N2 (stereo not drawn) [Example 1, 2,5-dihydro-11-methoxy-5-phenyl-2,2,4-trimethyl-1H-[1]benzopyrano[3,4-f]quinoline]
Ki [1]: 230 nM | Ki [2]: 10000 nM

C=CCC1Oc2ccccc2-c2c(OC)cc3c(c21)C(C)=CC(C)(C)N3 (stereo not drawn) [Example 2, 2,5-dihydro-11-methoxy-5-(2-propenyl)-2,2,4-trimethyl-1H-[1]benzopyrano[3,4-f]quinoline]
Ki [1]: 640 nM | melting point: 84 to 86 °C | Ki [2]: 14000 nM

COc1cc2c(c3c1-c1ccccc1OC3c1cc(Cl)cc(Cl)c1)C(C)=CC(C)(C)N2 (stereo not drawn) [Example 3, 2,5-dihydro-11-methoxy-5-(3,5-dichlorophenyl)-2,2,4-trimethyl-1H-[1]benzopyrano[3,4-f]quinoline]
Ki [1]: 200 nM | Ki [2]: 10000 nM

C=C1CC(C)(C)Nc2cc(OC)c3c(c21)C(c1cc(Cl)cc(Cl)c1)Oc1ccccc1-3 (stereo not drawn) [Example 4, 2,3,5-trihydro-11-methoxy-5-(3,5-dichlorophenyl)-2,2,4-dimethyl-4-methylene-1H-[1]benzopyrano[3,4-f]quinoline]
Ki [1]: 270 nM | Ki [2]: 8600 nM
